In PubChem BioAssay (NCI):
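Values below derive from 48-hour exposures of cells grown in 96-well plates, with endpoints linearly interpolated between the two concentrations bracketing the appropriate inhibition level. TGI: total growth inhibition.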

How the values were obtained:
Experiment in all cases: inhibition of tumour cell growth, NCI panel, 48 h
RXF 393 renal = test system: RXF 393 renal
SF-295 CNS = test system: SF-295 CNS
SK-MEL-28 melanoma = test system: SK-MEL-28 melanoma
K-562 leukemia = test system: K-562 leukemia
OVCAR-5 ovarian = test system: OVCAR-5 ovarian
MOLT-4 leukemia = test system: MOLT-4 leukemia
IGROV1 ovarian = test system: IGROV1 ovarian
KM12 colon = test system: KM12 colon
A549 NSCLC = test system: A549 NSCLC
CAKI-1 renal = test system: CAKI-1 renal
NCI/ADR-RES ovarian = test system: NCI/ADR-RES ovarian
SF-268 CNS = test system: SF-268 CNS
UACC-62 melanoma = test system: UACC-62 melanoma
NCI-H23 lung = test system: NCI-H23 lung
NCI-H460 lung = test system: NCI-H460 lung
OVCAR-8 ovarian = test system: OVCAR-8 ovarian
TK-10 renal = test system: TK-10 renal
HS 578T breast = test system: HS 578T breast
786-0 renal = test system: 786-0 renal
MDA-MB-435 = test system: MDA-MB-435
BT-549 breast = test system: BT-549 breast
HOP-62 NSCLC = test system: HOP-62 NSCLC
MDA-MB-231 breast = test system: MDA-MB-231 breast
SW-620 colon = test system: SW-620 colon
MALME-3M melanoma = test system: MALME-3M melanoma
SK-OV-3 ovarian = test system: SK-OV-3 ovarian
CCRF-CEM leukemia = test system: CCRF-CEM leukemia
SNB-19 CNS = test system: SNB-19 CNS
T-47D breast = test system: T-47D breast
HL-60(TB) leukemia = test system: HL-60(TB) leukemia
RPMI-8226 leukemia = test system: RPMI-8226 leukemia
HCT-15 colon = test system: HCT-15 colon
NCI-H522 lung = test system: NCI-H522 lung
MDA-N = test system: MDA-N
HCT-116 colon = test system: HCT-116 colon
SK-MEL-2 melanoma = test system: SK-MEL-2 melanoma
U251 CNS = test system: U251 CNS
UO-31 renal = test system: UO-31 renal
EKVX NSCLC = test system: EKVX NSCLC
OVCAR-4 ovarian = test system: OVCAR-4 ovarian
M14 melanoma = test system: M14 melanoma
HT29 colon = test system: HT29 colon
LOX IMVI melanoma = test system: LOX IMVI melanoma
SR leukemia = test system: SR leukemia
UACC-257 melanoma = test system: UACC-257 melanoma
SK-MEL-5 melanoma = test system: SK-MEL-5 melanoma
ACHN renal = test system: ACHN renal
COLO 205 colon = test system: COLO 205 colon
PC-3 prostate = test system: PC-3 prostate
DU-145 prostate = test system: DU-145 prostate
SN12C renal = test system: SN12C renal
MCF7 breast = test system: MCF7 breast
NCI-H226 lung = test system: NCI-H226 lung
HCC-2998 colon = test system: HCC-2998 colon
OVCAR-3 ovarian = test system: OVCAR-3 ovarian
SF-539 CNS = test system: SF-539 CNS
A498 renal = test system: A498 renal
SNB-75 CNS = test system: SNB-75 CNS
HOP-92 NSCLC = test system: HOP-92 NSCLC

Measured: TGI

CN(C)CCNc1ncnc2nc(-c3ccc4ccccc4c3)[nH]c12
> 100 µM: RXF 393 renal | SF-295 CNS | SK-MEL-28 melanoma | K-562 leukemia | OVCAR-5 ovarian | MOLT-4 leukemia | IGROV1 ovarian | KM12 colon | A549 NSCLC | CAKI-1 renal | NCI/ADR-RES ovarian | SF-268 CNS | UACC-62 melanoma | NCI-H23 lung | NCI-H460 lung | OVCAR-8 ovarian | TK-10 renal | HS 578T breast | 786-0 renal | MDA-MB-435 | BT-549 breast | HOP-62 NSCLC | MDA-MB-231 breast | SW-620 colon | MALME-3M melanoma | SK-OV-3 ovarian | CCRF-CEM leukemia | SNB-19 CNS | T-47D breast | HL-60(TB) leukemia | RPMI-8226 leukemia | HCT-15 colon | NCI-H522 lung | MDA-N | HCT-116 colon | SK-MEL-2 melanoma | U251 CNS | UO-31 renal | EKVX NSCLC | OVCAR-4 ovarian | M14 melanoma | HT29 colon | LOX IMVI melanoma | SR leukemia | UACC-257 melanoma | SK-MEL-5 melanoma | ACHN renal | COLO 205 colon | PC-3 prostate | DU-145 prostate | SN12C renal | MCF7 breast | NCI-H226 lung | HCC-2998 colon | OVCAR-3 ovarian

OCC1OC(n2cnc3c(/C=C(/O)c4ccccc4)ncnc32)C(O)C1O (configuration not stated)
13.5 µM: TK-10 renal
24 µM: HL-60(TB) leukemia
7.56 µM: NCI-H460 lung
> 24.7 µM: SK-MEL-2 melanoma
> 88.1 µM: OVCAR-4 ovarian
> 30 µM: MDA-MB-231 breast
> 35.7 µM: UO-31 renal
> 100 µM: RXF 393 renal | SF-295 CNS | SK-MEL-28 melanoma | K-562 leukemia | OVCAR-5 ovarian | MOLT-4 leukemia | IGROV1 ovarian | KM12 colon | A549 NSCLC | CAKI-1 renal | SF-268 CNS | SF-539 CNS | UACC-62 melanoma | NCI-H23 lung | OVCAR-8 ovarian | HS 578T breast | 786-0 renal | MDA-MB-435 | BT-549 breast | HOP-62 NSCLC | SW-620 colon | MALME-3M melanoma | CCRF-CEM leukemia | SNB-19 CNS | T-47D breast | RPMI-8226 leukemia | HCT-15 colon | MDA-N | HCT-116 colon | U251 CNS | EKVX NSCLC | M14 melanoma | HT29 colon | LOX IMVI melanoma | SR leukemia | ACHN renal | DU-145 prostate | SN12C renal | MCF7 breast | OVCAR-3 ovarian | HOP-92 NSCLC
> 25.1 µM: SNB-75 CNS
> 91.1 µM: A498 renal
2.7 µM: COLO 205 colon
79.7 µM: SK-MEL-5 melanoma
43.1 µM: NCI-H522 lung
> 62.4 µM: PC-3 prostate
> 92.7 µM: NCI-H226 lung
> 62.9 µM: UACC-257 melanoma
> 92 µM: NCI/ADR-RES ovarian
